Source: patent US20260042731A1, “(2,4-DICHLOROPHENOXY)ACETIC ACID ANALOGS” (CORTEVA AGRISCIENCE LLC, priority 2022, published 2026)
Several values for one entry are separate records, joined by “and”; a condition that tells them apart may be missing. Equal entries are not always repeated. Where two headings read alike, the source gives them in different places.

Legend:
[1] = system: Abutilon theophrasti (ABUTH), velvetleaf; assay: Postemergence herbicide evaluation, growth of Abutilon theophrasti (ABUTH); type: in vivo; conditions: Abutilon theophrasti, post-emergence, read-out: AVE. ABUTH
[2] = system: weeds ABUTH, AMATA, AMBEL, CHEAL, ERICA; assay: Postemergence herbicide evaluation, overall average % weed control across ABUTH, AMATA, AMBEL, CHEAL and ERICA; type: in vivo; conditions: post-emergence, read-out: Overall Ave % Weed Control
[3] = system: Ambrosia artemisiifolia (AMBEL), common ragweed; assay: Postemergence herbicide evaluation, growth of Ambrosia artemisiifolia (AMBEL); type: in vivo; conditions: Ambrosia artemisiifolia, post-emergence, read-out: AVE. AMBEL
[4] = system: Chenopodium album (CHEAL), common lambsquarters; assay: Postemergence herbicide evaluation, growth of Chenopodium album (CHEAL); type: in vivo; conditions: Chenopodium album, post-emergence, read-out: Ave. CHEAL
[5] = Volatility of compounds measured by thermogravimetric analysis (TGA); type: physicochemical
[6] = system: Amaranthus rudis (AMATA), tall water hemp; assay: Postemergence herbicide evaluation, growth of Amaranthus rudis (AMATA); type: in vivo; conditions: Amaranthus tuberculatus, post-emergence, read-out: Ave. AMATA
[7] = system: glyphosate resistant Conyza canadensis (L.) (ERICA), horseweed; assay: Postemergence herbicide evaluation, growth of Conyza canadensis (ERICA); type: in vivo; conditions: Erigeron canadensis, post-emergence, percent reduction in plant size vs untreated control, read-out: Ave. ERICA; for pest or weed control at 280 g/ha: 280 g ae/ha; for pest or weed control at 560 g/ha: 560 g ae/ha
[8] = 168 h, 280 g ae/ha, 7 DAA, percent reduction in plant size vs untreated control
[9] = 168 h, 560 g ae/ha, 7 DAA, percent reduction in plant size vs untreated control
[10] = 336 h, 280 g ae/ha, 14 DAA, percent reduction in plant size vs untreated control
[11] = 336 h, 560 g ae/ha, 14 DAA, percent reduction in plant size vs untreated control
[12] = 504 h, 280 g ae/ha, 21 DAA, percent reduction in plant size vs untreated control
[13] = 504 h, 560 g ae/ha, 21 DAA, percent reduction in plant size vs untreated control

Work on `O=C(COc1ccc(Cl)cc1Cl)ONC(=O)C1CCCC1` [Compound A20] yielded a pest or weed control at 280 g/ha [1, 8] of 60%, a pest or weed control at 560 g/ha [1, 9] of 87.5% and a pest or weed control at 280 g/ha [1, 10] of 79%. The pest or weed control at 560 g/ha [1, 11] was 100%, the pest or weed control at 280 g/ha [1, 12] was 92.5% and the pest or weed control at 560 g/ha [1, 13] was 100%. For the same molecule, the pest or weed control at 280 g/ha ([2]; 168 h, 280 g ae/ha, 7 DAA, average over five weeds) was 75.3%, the pest or weed control at 560 g/ha ([2]; 168 h, 560 g ae/ha, 7 DAA, average over five weeds) was 84.5% and the pest or weed control at 280 g/ha ([2]; 336 h, 280 g ae/ha, 14 DAA, average over five weeds) was 93.1%. The pest or weed control at 560 g/ha ([2]; 336 h, 560 g ae/ha, 14 DAA, average over five weeds) was 92.4%, the pest or weed control at 280 g/ha ([2]; 504 h, 280 g ae/ha, 21 DAA, average over five weeds) was 97.5% and the pest or weed control at 560 g/ha ([2]; 504 h, 560 g ae/ha, 21 DAA, average over five weeds) was 95.7%. For the same molecule, the pest or weed control at 280 g/ha [3, 8] was 72.5%, the pest or weed control at 560 g/ha [3, 9] was 85% and the pest or weed control at 280 g/ha [3, 10] was 100%. The pest or weed control at 560 g/ha [3, 11] was 85%, the pest or weed control at 280 g/ha [3, 12] was 100% and the pest or weed control at 560 g/ha [3, 13] was 100%. It also gave a pest or weed control at 280 g/ha [4, 8] of 77.5%, a pest or weed control at 560 g/ha [4, 9] of 77.5% and a pest or weed control at 280 g/ha [4, 10] of 98%. It also gave a pest or weed control at 560 g/ha [4, 11] of 92.5%, a pest or weed control at 280 g/ha [4, 12] of 95% and a pest or weed control at 560 g/ha [4, 13] of 96%. For the same molecule, the “TGA Data (rate of weight loss, volatility)” value [5] was 1.83 µg/min, the “TGA Data (rate of weight loss, volatility)” value ([5]; value marked *: decomposition of the material was observed) was 2.946* μg/min and 1.83* μg/min and the pest or weed control at 280 g/ha [6, 8] was 91.5%. It also gave a pest or weed control at 560 g/ha [6, 9] of 92.5%, a pest or weed control at 280 g/ha [6, 10] of 90% and a pest or weed control at 560 g/ha [6, 11] of 90%. The pest or weed control at 280 g/ha [6, 12] was 100%, the pest or weed control at 560 g/ha [6, 13] was 82.5% and the pest or weed control at 280 g/ha ([7]; 168 h, 7 DAA) was 75%. The pest or weed control at 560 g/ha ([7]; 168 h, 7 DAA) was 80%, the pest or weed control at 280 g/ha ([7]; 336 h, 14 DAA) was 98.5% and the pest or weed control at 560 g/ha ([7]; 336 h, 14 DAA) was 94.5%. It also gave a pest or weed control at 280 g/ha ([7]; 504 h, 21 DAA) of 100% and a pest or weed control at 560 g/ha ([7]; 504 h, 21 DAA) of 100%.

Work on `O=C(COc1ccc(Cl)cc1Cl)OCCCCCOC(=O)COc1ccc(Cl)cc1Cl` [Compound B8] yielded a pest or weed control at 280 g/ha ([1]; 504 h) of 97%, a pest or weed control at 560 g/ha ([1]; 504 h) of 99% and a pest or weed control at 280 g/ha ([2]; 168 h) of 74.3%. It also gave a pest or weed control at 560 g/ha ([2]; 168 h) of 79.8%, a pest or weed control at 280 g/ha ([2]; 336 h) of 90.4% and a pest or weed control at 560 g/ha ([2]; 336 h) of 95.9%. It also gave a pest or weed control at 280 g/ha ([2]; 504 h) of 96.8%, a pest or weed control at 560 g/ha ([2]; 504 h) of 99.7% and a pest or weed control at 560 g/ha ([3]; 168 h) of 72.5%. For the same molecule, the pest or weed control at 280 g/ha ([3]; 336 h) was 90%, the pest or weed control at 280 g/ha ([3]; 504 h) was 100% and the pest or weed control at 560 g/ha ([3]; 504 h) was 100%. The pest or weed control at 280 g/ha ([4]; 168 h) was 80%, the pest or weed control at 560 g/ha ([4]; 168 h) was 82.5% and the pest or weed control at 280 g/ha ([4]; 336 h) was 92.5%. The pest or weed control at 560 g/ha ([4]; 336 h) was 97%, the pest or weed control at 280 g/ha ([4]; 504 h) was 96% and the pest or weed control at 560 g/ha ([4]; 504 h) was 99.5%. For the same molecule, the “TGA Data (rate of weight loss, volatility)” value [5] was 0.3521 µg/min and 0.38 µg/min, the pest or weed control at 280 g/ha ([6]; 168 h) was 84% and the pest or weed control at 280 g/ha ([6]; 336 h) was 92.5%. It also gave a pest or weed control at 560 g/ha ([6]; 336 h) of 96.5%, a pest or weed control at 280 g/ha ([6]; 504 h) of 92.5% and a pest or weed control at 560 g/ha ([6]; 504 h) of 100%.

Molecule `O=C(COc1ccc(Cl)cc1Cl)OCCOCCOCCOC(=O)COc1ccc(Cl)cc1Cl` [Compound B13] has a pest or weed control at 280 g/ha ([1]; 168 h) of 55%, a pest or weed control at 560 g/ha ([1]; 168 h) of 45% and a pest or weed control at 280 g/ha ([1]; 336 h) of 62.5%. It also gave a pest or weed control at 560 g/ha ([1]; 336 h) of 57.5%, a pest or weed control at 280 g/ha ([1]; 504 h) of 67.5% and a pest or weed control at 560 g/ha ([1]; 504 h) of 62.5%. It also gave a pest or weed control at 280 g/ha ([2]; 168 h) of 72%, a pest or weed control at 560 g/ha ([2]; 168 h) of 75.7% and a pest or weed control at 280 g/ha ([2]; 336 h) of 83.6%. For the same molecule, the pest or weed control at 560 g/ha ([2]; 336 h) was 82.6%, the pest or weed control at 280 g/ha ([2]; 504 h) was 86% and the pest or weed control at 560 g/ha ([2]; 504 h) was 84.5%. For the same molecule, the pest or weed control at 280 g/ha ([3]; 168 h) was 72.5%, the pest or weed control at 560 g/ha ([3]; 168 h) was 88.5% and the pest or weed control at 280 g/ha ([3]; 336 h) was 72.5%. It also gave a pest or weed control at 560 g/ha ([3]; 336 h) of 75%, a pest or weed control at 280 g/ha ([3]; 504 h) of 100% and a pest or weed control at 560 g/ha ([3]; 504 h) of 99%. It also gave a pest or weed control at 280 g/ha ([4]; 168 h) of 80%, a pest or weed control at 560 g/ha ([4]; 168 h) of 82.5% and a pest or weed control at 280 g/ha ([4]; 336 h) of 96.5%. For the same molecule, the pest or weed control at 560 g/ha ([4]; 336 h) was 98%, the pest or weed control at 280 g/ha ([4]; 504 h) was 98.5% and the pest or weed control at 560 g/ha ([4]; 504 h) was 95%. The “TGA Data (rate of weight loss, volatility)” value [5] was 0.2318 µg/min, the pest or weed control at 280 g/ha ([6]; 168 h) was 67.5% and the pest or weed control at 560 g/ha ([6]; 168 h) was 75%. The pest or weed control at 280 g/ha ([6]; 336 h) was 95%, the pest or weed control at 560 g/ha ([6]; 336 h) was 87.5% and the pest or weed control at 280 g/ha ([6]; 504 h) was 65%. For the same molecule, the pest or weed control at 560 g/ha ([6]; 504 h) was 67.5%.
